How the values were obtained:
[1] = system: luciferase (Luc) RNA; assay: In vivo screening of LNP pilot batches using luciferase (Luc) RNA, intravenous administration; conditions: on the basis of the in vivo screening studies
Procedure: (§1) An exemplary LNP delivery system was developed to effectively and safely deliver therapeutic nucleic acids into the cytosol of various cell types after local administration in vivo. The early formulation work was performed with several promising LNP formulations and surrogate RNA coding for luciferase. The aim of the experiments was to correlate the effect of different ionizable cationic lipids on the efficacy of RNA delivery by LNPs in vivo. Formulations were compared in terms of RNA encapsulation efficiency, apparent pKa, LNP size and polydispersity.
Based on this the ALC-0315/DSPC/CHOL/ALC-0159 prototype was submitted for in vivo screening. The results presented in FIG. 16 summarize the in vivo testing of two independent pilot batches using luciferase (Luc) RNA.
The formulation screening procedure described above involves intravenous administration resulting in delivery primarily to the liver. The mechanism of LNP uptake into hepatocytes is driven by binding of endogenous apolipoproteins to the LNP followed by receptor-mediated endocytosis e.g. through low density lipoprotein receptors. […] Luc expression was monitored at 4, 24, 72 and 96 hours post administration (FIG. 17).

[2] = LNP formulation comparison: RNA encapsulation efficiency, apparent pKa, LNP size and polydispersity; format: physicochemical; conditions: LNP with surrogate RNA coding for luciferase; among the screened cationic lipids
Procedure: as §1

## CCCCCCCCC(CCCCCC)C(=O)OCCCCCCN(CCCCO)CCCCCCOC(=O)C(CCCCCC)CCCCCCCC (centres unmarked) [ALC-0315, ((4-hydroxybutyl)azanediyl)bis(hexane-6,1-diyl)bis(2-hexyldecanoate)]
[1]
  potency as cationic lipid: highly potent
[2]
  physical characteristics regarding particle size, homogeneity, and RNA encapsulation efficiency: suitable physical characteristics

— patent US11951185B2, “RNA constructs and uses thereof” (BioNTech SE, priority 2020, dated 2024)
